Source: PubChem BioAssay (NCI)
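Test compounds were applied to cells in 96-well plates for 48 hours at 5 doses. GI50 is the concentration that inhibits growth by half. The concentration for full growth arrest is given as TGI.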

Assays:
Assay in all cases: inhibition of tumour cell growth, NCI panel, 48 h
[1] = tested on: SK-MEL-5 melanoma
[2] = tested on: COLO 205 colon
[3] = tested on: SN12C renal
[4] = tested on: NCI-H226 lung
[5] = tested on: HOP-92 NSCLC
[6] = tested on: 786-0 renal
[7] = tested on: SW-620 colon
[8] = tested on: SF-295 CNS
[9] = tested on: NCI-H460 lung
[10] = tested on: UO-31 renal

Row | Compound | GI50 [1] [µM] | TGI [1] [µM] | GI50 [2] [µM] | TGI [2] [µM] | GI50 [3] [µM] | TGI [3] [µM] | GI50 [4] [µM] | TGI [4] [µM] | GI50 [5] [µM] | TGI [5] [µM] | GI50 [6] [µM] | TGI [6] [µM] | GI50 [7] [µM] | TGI [7] [µM] | GI50 [8] [µM] | TGI [8] [µM] | GI50 [9] [µM] | TGI [9] [µM] | GI50 [10] [µM] | TGI [10] [µM]
1 | Cc1ccc2c(n1)C(=O)C(Cl)=C(Nc1ccc(N3CCN(C)CC3)cc1)C2=O | 1.72 | 3.1 | 1.77 | 3.27 | 1.72 | 3.1 | 1.77 | 3.38 | 1.68 | 3.21 | 1.71 | 3.1 | 2.01 | 4.52 | 18 | 32.3 | 3.74 | 15.7 | 1.63 | 2.98
2 | Cc1cc(C(=O)N2CCN(C)CC2)c2c(=O)n(-c3ccccc3)c(=O)n(CC(O)CN3CCN(c4ncccn4)CC3)c2n1 (stereo not given) | > 100 | > 100 | > 100 | > 100 | > 100 | > 100 | > 100 | > 100 | > 100 | > 100 | > 100 | > 100 | > 100 | > 100 | > 100 | > 100 | > 100 | > 100 | > 100 | > 100
3 | O=S1CCN(Cc2ccc(-c3ccc4ncnc(Nc5ccc(OCc6ccccc6)c(F)c5)c4c3)o2)CC1 | 3.44 | 7 | 4.42 | 10.6 | 8.07 | > 25 | 5.61 | 19.2 | 3.76 | 17.7 | 6.59 | 18.6 | 10.8 | > 25 | 7.63 | > 22.1 | 7.91 | > 25 | 4.85 | > 25
4 | CCOC(=O)C/C(N)=C(\C#N)C(=O)OCC |  | > 100 |  | > 100 |  | > 100 |  | > 100 |  | > 100 |  | > 100 |  | > 100 |  | > 100 |  | > 100 |  | > 100
5 | Cc1ccn2c(-c3csc(Nc4cccc(O)c4)n3)c(C)nc2c1 | 0.478 | 11.1 | 11.8 | 26.3 | 0.946 | 27.8 | 14.1 | 57.4 | 1.75 | 22.7 | 1.8 | 8.81 | 0.337 | 26.8 | 2.34 | 11.9 | 0.423 | 16.9 | 0.977 | 16.6
6 | O=C(Cc1nc2ccc(C(=O)c3ccccc3)cc2[nH]c1=O)C(=O)Nc1ccc(C(F)(F)F)cc1[N+](=O)[O-] |  | > 100 |  | > 100 |  | > 100 |  | > 100 |  | > 100 |  | > 100 |  | > 100 |  | > 100 |  | > 100 |  | > 100
7 | Cc1nn2c(=O)n(-c3cccc(-n4nnc5c(-c6ccccc6)c(C)nn5c4=O)c3C)nnc2c1-c1ccccc1 |  | 33.8 |  | 42.7 |  | 36.5 |  | > 100 |  | > 100 |  | > 100 |  | 48.4 |  | > 100 |  | 50.1 |  | > 100
8 | O=C(O)CC1C(=O)OC2C3COC(=O)c4cc(O)c(O)c(O)c4-c4c(cc(O)c(O)c4O)C(=O)OC2C(OC(=O)c2cc(O)c(O)c4c2C1C(O)C(=O)O4)C(OC(=O)c1cc(O)c(O)c(O)c1)O3 (stereo not given) |  | > 100 |  | > 100 |  | 36.3 |  | > 100 |  | 52.6 |  | 56.5 |  | > 100 |  | > 100 |  | 31.4 |  | > 100
9 | O=C(NCCSSCCNC(=O)/C(Cc1ccc(O)c(Br)c1)=N/O)/C(Cc1ccc(O)c(Br)c1)=N/O |  | 2.33 |  | 6.82 |  | 5.73 |  | 41.9 |  | 22.9 |  | 8.49 |  | 14.3 |  | 4.29 |  | > 20.6 |  | 8.58
10 | CCOC(=O)C1=C(C)NC(C)=C(C(=O)OCC)C1c1cc(Br)c(O)c(OC)c1 | 3.61 | 14.6 | 10.3 | 22.9 | 6.07 | 22.5 | 2.77 | 12.4 | 1.82 | 12.3 | 4.01 | 18 | 4.12 | 16.3 | 2.89 | 10.5 | 3.98 | 14.4 | 4.55 | 25.2
11 | Cc1ccc(-n2nnc3c(sc4ccccc43)c2=O)cc1 | 28.1 | > 100 | 6.23 | > 100 | > 100 | > 100 | 9.55 | > 100 | 1.54 | 6.82 | 3.4 | 12.1 | 26.2 | > 100 | 3.03 | 14.5 | 4.19 | > 100 | 2.24 | 7.75
12 | O=C(O)c1ccccc1-c1ccccc1C(=O)Nc1ccc2c(c1)Cc1ccccc1-2 |  | 31.6 |  | 31.2 |  | > 100 |  | > 100 |  | > 100 |  | > 100 |  | > 100 |  | > 100 |  | 38.1 |  | > 100
13 | COc1ccc(C2=NNC(c3cc(Cc4ccc(O)c(C5CC(c6ccc(OC)cc6)=NN5)c4)ccc3O)C2)cc1 (stereo not given) | 1.76 | 6.4 | 19.4 | > 100 | 8.84 | > 100 | 6.08 | > 100 | 8.28 | > 100 | 8.39 | 93.4 | 7.96 | > 100 | 21.2 | > 100 | 4.88 | > 100 | 4.29 | > 100
14 | C/C(=C\CCc1ccsc1)CC/C=C(\C)CCCN1CCN(CCO)CC1 | 1.59 | 2.97 | 1.89 | 3.95 | 4.13 | 19.2 | 5.68 | 24.3 | 1.73 | 7.48 | 2.27 | 5.35 | 1.93 | 4.29 | 2.29 | 5.64 | 1.96 | 3.79 | 4.95 | 20.5
15 | COc1ccccc1NC(=O)CC(=O)n1nc(-c2ccccc2)c(N=Nc2ccccc2[N+](=O)[O-])c1-c1ccccc1 |  | > 100 |  | > 100 |  | > 100 |  | > 100 |  | > 100 |  | > 100 |  | > 100 |  | > 100 |  | > 100 |  | > 100
16 | O=C1NC(=O)C(N2CCc3ccccc32)=C1c1ccc(Cl)cc1 | > 23.2 | > 25 | > 25 | > 25 | > 25 | > 25 | > 25 | > 25 | 6.38 | > 25 | > 10 | > 14.5 | > 25 | > 25 | > 25 | > 25 | > 25 | > 25 | > 17.3 | > 25
17 | COC(=O)CSc1n[nH]c(-c2ccccc2)n1 |  | > 100 |  | > 100 |  | > 100 |  | > 100 |  | > 100 |  | > 100 |  | > 100 |  | > 100 |  | > 100 |  | > 100
18 | O=C1c2cccc3cccc(c23)C(=O)N1CC#Cc1ccc2c3c(cccc13)C(=O)N(CCN1CCNCC1)C2=O | 18.3 | 36.4 | 3.3 | 12.4 | 1.71 | 3.68 | 20.3 | 52.3 | 4 | 20.5 | 1.86 | 3.53 | 1.94 | 3.79 | 17.5 | 33.8 | 1.92 | 3.6 | 20.6 | 84.8
19 | O=c1c(-c2ccc3c(c2)OCO3)coc2c(CO)c(O)ccc12 | 1.91 | 3.98 | 20.9 | 45.5 | 1.82 | 5.51 | 1.81 | 4.46 | 2.02 | 4.86 | 1.97 | 4.6 | 4.06 | 18.5 | 2.2 | 6.18 | 2.6 | 7.85 | 2.89 | 12
20 | Oc1[nH]c2ccc(Cl)cc2c1/C=c1/ccc2c(c1)N=C(c1ccc(C(F)(F)F)cc1)N=2 | 1.7 | 3.31 | 2.1 | 4.13 | 2.37 | 6.72 | 3.13 | 11.6 | 1.68 | 4.35 | 1.75 | 3.31 | 1.97 | 4.1 | 1.87 | 5.04 | 1.88 | 3.82 | 2.56 | 9.81
21 | CCN1CCN(CC(=O)Nc2nc3ccc(NCc4ccc(C)cc4)cc3s2)CC1 | 0.975 | 2.01 | 1.03 | 2.1 | 4.11 | 11.1 | 7.77 | 18.8 | 0.504 | 2.34 | 4.24 | 10.9 | 1.6 | 6.07 | 2.4 | 9.06 | 2.12 | 7.71 | 2.57 | 10.8
